Data reported in patent publication US20170190671A1, “BIS(ARYL)CATECHOL DERIVATIVES AS HERBICIDES” (E I DU PONT DE NEMOURS AND COMPANY, priority 2014, published 2017).

Columns and labels:
Format in all cases: in vivo
[1] = test system: Italian ryegrass (Lolium multiflorum); experiment: Test C preemergence; conditions: Lolium multiflorum, pre-emergence, 336 h, scale 0 to 100, read-out: Plant response rating, Ryegrass, Italian
Procedure, shortened: (§1)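 Visual ratings (0 none to 100 complete control) were made 13 to 15 days after treatment, relative to controls. Test chemicals, formulated in a non-phytotoxic solvent mixture with surfactant, were applied in the greenhouse preemergence to seeded loam-sand soil or postemergence to plants 2 to 18 cm tall.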

[2] = test system: barnyardgrass (Echinochloa crus-galli); experiment: Test C preemergence; conditions: Echinochloa crus-galli, pre-emergence, read-out: Plant response rating, Barnyardgrass
Procedure, shortened: as §1

[3] = test system: blackgrass (Alopecurus myosuroides); experiment: Test C preemergence; conditions: Alopecurus myosuroides, pre-emergence, 336 h, scale 0 to 100, read-out: Plant response rating, Blackgrass
Procedure, shortened: as §1

corn (Zea mays) = experiment: Test C preemergence; conditions: Zea mays, pre-emergence, 336 h, scale 0 to 100
Procedure, shortened: as §1

[4] = test system: galium (catchweed bedstraw, Galium aparine); experiment: Test C preemergence; conditions: Galium, pre-emergence, 336 h, scale 0 to 100, read-out: Plant response rating, Galium
Procedure, shortened: as §1

[5] = test system: johnsongrass (Sorghum halepense); experiment: Test C preemergence; conditions: Sorghum halepense, pre-emergence, 336 h, scale 0 to 100, read-out: Plant response rating, Johnsongrass
Procedure, shortened: as §1

[6] = test system: lambsquarters (Chenopodium album); experiment: Test C preemergence; conditions: Chenopodium album, pre-emergence, 336 h, scale 0 to 100, read-out: Plant response rating, Lambsquarters
Procedure, shortened: as §1

[7] = test system: morningglory (Ipomoea coccinea); experiment: Test C preemergence; conditions: Ipomoea, pre-emergence, 336 h, scale 0 to 100, read-out: Plant response rating, Morningglory
Procedure, shortened: as §1

[8] = test system: pigweed (Amaranthus retroflexus); experiment: Test C preemergence; conditions: Amaranthus retroflexus, pre-emergence, 336 h, scale 0 to 100, read-out: Plant response rating, Pigweed
Procedure, shortened: as §1

[9] = test system: ragweed (common ragweed, Ambrosia elatior); experiment: Test C preemergence; conditions: Ambrosia artemisiifolia, pre-emergence, 336 h, scale 0 to 100, read-out: Plant response rating, Ragweed
Procedure, shortened: as §1

soybean (Glycine max) = experiment: Test C preemergence; conditions: Glycine max, pre-emergence, scale 0 to 100, read-out: Plant response rating, Soybean
Procedure, shortened: as §1

[10] = test system: velvetleaf (Abutilon theophrasti); experiment: Test C preemergence; conditions: Abutilon theophrasti, pre-emergence, scale 0 to 100, read-out: Plant response rating, Velvetleaf
Procedure, shortened: as §1

[11] = test system: waterhemp (common waterhemp, Amaranthus rudis); experiment: Test C preemergence; conditions: Amaranthus tuberculatus, pre-emergence, scale 0 to 100, read-out: Plant response rating, Waterhemp
Procedure, shortened: as §1

[12] = test system: yellow nutsedge (Cyperus esculentus); experiment: Test C preemergence; conditions: Cyperus, pre-emergence, 336 h, scale 0 to 100, read-out: Plant response rating, Nutsedge, Yellow
Procedure, shortened: as §1

[13] = test system: giant foxtail (Setaria faberii); experiment: Test E preemergence; conditions: scale 0 to 100
From the text: Seeds of plant species selected from corn (Zea mays), soybean (Glycine max), velvetleaf (Abutilon theophrasti), cocklebur (common cocklebur, Xanthium strumarium), lambsquarters (Chenopodium album), wild poinsettia (Euphorbia heterophylla), palmer pigweed (Amaranthus palmeri), waterhemp (common waterhemp, Amaranthus rudis), surinam grass (Brachiaria decumbens), large (Lg) crabgrass (Digitaria sanguinalis), Brazilian crabgrass (Digitaria horizontalis), fall panicum (Panicum dichotomiflorum), giant foxtail (Setaria faberii), green foxtail (Setaria viridis), goosegrass (Eleusine indica), johnsongrass (Sorghum halepense), ragweed (common ragweed, Ambrosia elatior), barnyardgrass (Echinochloa crus-galli), sandbur (southern sandbur, Cenchrus echinatus), arrowleaf sida (Sida rhombifolia), Italian ryegrass (Lolium multiflorum), dayflower (Virginia (VA) dayflower, Commelina virginica), field bindweed (Convolvulus arvensis), morningglory (Ipomoea coccinea), nightshade (eastern black nightshade, Solanum ptycanthum), kochia (Kochia scoparia), yellow nutsedge (Cyperus esculentus), horseweed (Conyza canadensis), and hairy beggarticks (Bidens pilosa), were planted into a silt loam soil and treated preemergence with test chemicals formulated in a non-phytotoxic solvent mixture which included a surfactant.
At the same time, plants from these crop and weed species and also waterhemp_RES1, (ALS & Triazine resistant common waterhemp, Amaranthus rudis), and waterhemp_RES2, (ALS & HPPD resistant common waterhemp, Amaranthus rudis) were planted in pots containing Redi-Earth® planting medium (Scotts Company, 14111 Scottslawn Road, Marysville, Ohio 43041) comprising spaghnum peat moss, vermiculite, wetting agent and starter nutrients were treated with postemergence applications of test chemicals formulated in the same manner. Plants ranged in height from 2 to 18 cm for postemergence treatments (1- to 4-leaf stage). Treated plants and controls were maintained in a greenhouse for 14 to 21 days, after which time all species were compared to controls and visually evaluated. Plant response ratings, summarized in Table E, are based on a scale of 0 to 100 where 0 is no effect and 100 is complete control. A dash (-) response means no test result.

Fc1cccc(Oc2ncc(C(F)(F)F)cn2)c1Oc1ncc(Cl)cn1 [Compound 42, 5-chloro-2-[2-fluoro-6-[[5-(trifluoromethyl)-2-pyrimidinyl]oxy]phenoxy]pyrimidine]
pest or weed control at 31 g/ha ([1]; 31 g ai/ha, preemergence): 70% | pest or weed control at 62 g/ha ([1]; 62 g ai/ha, preemergence): 80% | pest or weed control at 125 g/ha ([1]; 125 g ai/ha, preemergence): 95% | pest or weed control at 16 g/ha ([1]; Preemergence, 16 g ai/ha): 5% | pest or weed control at 31 g/ha ([2]; 31 g ai/ha, preemergence, scale 0 to 100): 90% | pest or weed control at 62 g/ha ([2]; 62 g ai/ha, preemergence, scale 0 to 100): 100% | pest or weed control at 125 g/ha ([2]; 125 g ai/ha, preemergence, scale 0 to 100): 100% | pest or weed control at 16 g/ha ([2]; Preemergence, 16 g ai/ha, scale 0 to 100 (0 no effect, 100 complete control)): 50% | pest or weed control at 31 g/ha ([3]; 31 g ai/ha, preemergence): 65% | pest or weed control at 62 g/ha ([3]; 62 g ai/ha, preemergence): 90% | pest or weed control at 125 g/ha ([3]; 125 g ai/ha, preemergence): 90% | pest or weed control at 16 g/ha ([3]; Preemergence, 16 g ai/ha): 35% | Corn plant response rating (crop injury, 0 = no effect, 100 = complete kill) at 31 g/ha (corn (Zea mays); 31 g ai/ha, preemergence): 5% | Corn plant response rating (crop injury, 0 = no effect, 100 = complete kill) at 62 g/ha (corn (Zea mays); 62 g ai/ha, preemergence): 80% | Corn plant response rating (crop injury, 0 = no effect, 100 = complete kill) at 125 g/ha (corn (Zea mays); 125 g ai/ha, preemergence): 85% | Corn plant response rating (crop injury, 0 = no effect, 100 = complete kill) at 16 g/ha (corn (Zea mays); Preemergence, 16 g ai/ha): 0% | pest or weed control at 31 g/ha ([4]; 31 g ai/ha, preemergence): 95% | pest or weed control at 62 g/ha ([4]; 62 g ai/ha, preemergence): 95% | pest or weed control at 125 g/ha ([4]; 125 g ai/ha, preemergence): 98% | pest or weed control at 16 g/ha ([4]; Preemergence, 16 g ai/ha): 95% | pest or weed control at 31 g/ha ([5]; 31 g ai/ha, preemergence): 70% | pest or weed control at 62 g/ha ([5]; 62 g ai/ha, preemergence): 100% | pest or weed control at 125 g/ha ([5]; 125 g ai/ha, preemergence): 100% | pest or weed control at 16 g/ha ([5]; Preemergence, 16 g ai/ha): 30% | pest or weed control at 31 g/ha ([6]; 31 g ai/ha, preemergence): 100% | pest or weed control at 62 g/ha ([6]; 62 g ai/ha, preemergence): 100% | pest or weed control at 125 g/ha ([6]; 125 g ai/ha, preemergence): 100% | pest or weed control at 16 g/ha ([6]; Preemergence, 16 g ai/ha): 100% | pest or weed control at 31 g/ha ([7]; 31 g ai/ha, preemergence): 85% | pest or weed control at 62 g/ha ([7]; 62 g ai/ha, preemergence): 100% | pest or weed control at 125 g/ha ([7]; 125 g ai/ha, preemergence): 100% | pest or weed control at 16 g/ha ([7]; Preemergence, 16 g ai/ha): 60% | pest or weed control at 31 g/ha ([8]; 31 g ai/ha, preemergence): 100% | pest or weed control at 62 g/ha ([8]; 62 g ai/ha, preemergence): 100% | pest or weed control at 125 g/ha ([8]; 125 g ai/ha, preemergence): 100% | pest or weed control at 16 g/ha ([8]; Preemergence, 16 g ai/ha): 100% | pest or weed control at 31 g/ha ([9]; 31 g ai/ha, preemergence): 55% | pest or weed control at 62 g/ha ([9]; 62 g ai/ha, preemergence): 98% | pest or weed control at 125 g/ha ([9]; 125 g ai/ha, preemergence): 90% | pest or weed control at 16 g/ha ([9]; Preemergence, 16 g ai/ha): 30% | plant injury at 31 g/ha (soybean (Glycine max); 31 g ai/ha, preemergence): 50% | plant injury at 62 g/ha (soybean (Glycine max); 62 g ai/ha, preemergence): 80% | plant injury at 125 g/ha (soybean (Glycine max); 125 g ai/ha, preemergence): 95% | plant injury at 16 g/ha (soybean (Glycine max); Preemergence, 16 g ai/ha): 25% | pest or weed control at 31 g/ha ([10]; 31 g ai/ha, preemergence): 100% | pest or weed control at 62 g/ha ([10]; 62 g ai/ha, preemergence): 100% | pest or weed control at 125 g/ha ([10]; 125 g ai/ha, preemergence): 100% | pest or weed control at 16 g/ha ([10]; Preemergence, 16 g ai/ha): 100% | pest or weed control at 31 g/ha ([11]; 31 g ai/ha, preemergence): 100% | pest or weed control at 62 g/ha ([11]; 62 g ai/ha, preemergence): 100% | pest or weed control at 125 g/ha ([11]; 125 g ai/ha, preemergence): 100% | pest or weed control at 16 g/ha ([11]; Preemergence, 16 g ai/ha): 95% | pest or weed control at 31 g/ha ([12]; 31 g ai/ha, preemergence): 10% | pest or weed control at 62 g/ha ([12]; 62 g ai/ha, preemergence): 50% | pest or weed control at 125 g/ha ([12]; 125 g ai/ha, preemergence): 75% | pest or weed control at 16 g/ha ([12]; Preemergence, 16 g ai/ha): 0% | Plant response rating, Foxtail, Giant ([13]; 16 g ai/ha): 50 | Plant response rating, Foxtail, Giant ([13]; 31 g ai/ha): 80 | Plant response rating, Foxtail, Giant ([13]; 62 g ai/ha): 100 | Plant response rating, Foxtail, Giant ([13]; 125 g ai/ha): 100
